Experimental findings from ChEMBL document CHEMBL5233249, “Recent advancements in the development of heterocyclic anti-inflammatory agents” (Eur J Med Chem, 2020) are described below.

Experiment [1] can be described thus: Selectivity index, ratio of IC50 for ovine COX1 to IC50 for recombinant human COX2.
Experiment [2] relates to Rattus norvegicus. Description: Anti-inflammatory activity against formalin-induced foot paw edema in PO dosed rat at 10 mg/kg assessed as reduction in volume of edema measured after 5 hr relative to control. The format is functional. Further details: scale not given: the % may be the effect or the level left.
Experiment [3] has as its system Rattus norvegicus. Description: Anti-ulcerative activity in aspirin induced Wistar rat ulcer model assessed as inhibition of ulcer index at 20 mg/kg,po. The format is functional.
Experiment [4] relates to Rattus norvegicus. Description: Anti-inflammatory activity in Carrageenan-induced paw edema in Wistar albino rat assessed as inhibition of paw edema measured after 1 hr relative to control. The format is functional. (In general: In the carrageenan paw model, swelling and tenderness develop within hours.)
Experiment [5] has as its system Rattus norvegicus. As to the kind of experiment: Anti-inflammatory activity in Carrageenan-induced paw edema in Wistar albino rat assessed as inhibition of paw edema measured after 2 hr relative to control. The format is functional.
For experiment [6], the target named is T1, Prostaglandin G/H synthase 2 (Homo sapiens, UniProt P35354).
T1 sequence (P35354 whole entry): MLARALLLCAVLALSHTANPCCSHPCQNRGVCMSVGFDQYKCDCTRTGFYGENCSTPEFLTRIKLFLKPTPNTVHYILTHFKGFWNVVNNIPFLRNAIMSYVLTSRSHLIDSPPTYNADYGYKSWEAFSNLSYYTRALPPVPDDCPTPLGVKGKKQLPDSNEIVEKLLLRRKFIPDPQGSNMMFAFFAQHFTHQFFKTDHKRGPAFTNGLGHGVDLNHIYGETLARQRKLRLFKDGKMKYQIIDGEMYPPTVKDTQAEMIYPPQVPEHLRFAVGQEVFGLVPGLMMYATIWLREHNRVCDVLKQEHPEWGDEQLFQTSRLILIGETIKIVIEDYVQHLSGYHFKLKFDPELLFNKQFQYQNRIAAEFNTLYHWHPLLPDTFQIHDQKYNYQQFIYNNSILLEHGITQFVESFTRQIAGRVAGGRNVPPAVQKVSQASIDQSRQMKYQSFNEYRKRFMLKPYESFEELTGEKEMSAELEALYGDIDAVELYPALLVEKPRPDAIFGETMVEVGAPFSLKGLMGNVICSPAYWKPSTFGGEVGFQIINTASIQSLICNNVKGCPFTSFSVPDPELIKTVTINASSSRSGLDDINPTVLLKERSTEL
As to the kind of experiment: Inhibition of COX-2 (unknown origin) at 0.1 uM.

In experiment [7] the test system is Rattus norvegicus. Description: Anti-inflammatory activity in Carrageenan-induced paw edema in Wistar albino rat assessed as inhibition of paw edema measured after 6 hr relative to control. The format is functional.
The subject of experiment [8] is RAW264.7. Description: Anti-inflammatory activity in mouse RAW264.7 cells assessed as inhibition of LPS-induced NO production measured after 24 hrs. The conditions noted are these: RAW264.7, 24 h. The format is functional, cell-based.
The subject of experiment [9] is RAW264.7. As to the kind of experiment: Anti-inflammatory activity in mouse RAW264.7 cells assessed as LPS-induced reduction in NO production measured after 24 hrs. The format is functional, cell-based. The conditions noted are these: RAW264.7, 24 h.
The target of experiment [10] is T2, Prostaglandin G/H synthase 1 (Ovis aries, UniProt P05979).
T2 sequence (P05979 whole entry): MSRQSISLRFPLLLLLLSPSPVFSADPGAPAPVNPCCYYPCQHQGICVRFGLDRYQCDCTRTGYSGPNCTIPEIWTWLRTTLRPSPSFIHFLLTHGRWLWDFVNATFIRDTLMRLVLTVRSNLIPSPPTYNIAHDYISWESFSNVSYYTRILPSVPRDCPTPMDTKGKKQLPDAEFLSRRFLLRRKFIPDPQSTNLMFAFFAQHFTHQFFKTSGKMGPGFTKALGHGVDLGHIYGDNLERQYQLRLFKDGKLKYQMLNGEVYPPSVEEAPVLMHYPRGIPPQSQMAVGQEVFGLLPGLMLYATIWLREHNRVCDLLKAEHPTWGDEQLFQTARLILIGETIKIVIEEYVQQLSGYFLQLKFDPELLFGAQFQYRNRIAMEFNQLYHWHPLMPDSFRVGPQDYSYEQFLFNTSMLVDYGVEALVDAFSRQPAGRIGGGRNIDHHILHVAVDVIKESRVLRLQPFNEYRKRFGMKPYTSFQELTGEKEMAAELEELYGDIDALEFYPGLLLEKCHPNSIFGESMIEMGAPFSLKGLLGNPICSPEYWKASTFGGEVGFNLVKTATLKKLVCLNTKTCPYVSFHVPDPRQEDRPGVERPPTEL
Description: Inhibition of ovine COX-1 by EIA method.

Experiment [11] deals with Rattus norvegicus. Description: Anti-inflammatory activity in Carageenan-induced foot paw edema in Sprague-Dawley rat at 50 mg/kg assessed as reduction in paw edema volume relative to control. The format is functional. On the set-up: scale not given: the % may be the effect or the level left.
Experiment [12] deals with Rattus norvegicus. Description: Anti-inflammatory activity in Carrageenan-induced paw edema in Wistar albino rat assessed as inhibition of edema measured after 3 hrs relative to control. The format is functional.
Experiment [13] deals with Rattus norvegicus. As to the kind of experiment: Anti-inflammatory activity in Carrageenan-induced paw edema in Wistar albino rat assessed as reduction in paw edema measured after 1 hr relative to control. The format is functional. On the set-up: scale not given: the % may be the effect or the level left.
Experiment [14] concerns Rattus norvegicus. Description: Anti-inflammatory activity in Carrageenan-induced paw edema in Wistar albino rat assessed as reduction in paw edema measured after 2 hr relative to control. The format is functional. On the set-up: scale not given: the % may be the effect or the level left.
Experiment [15] relates to Rattus norvegicus. As to the kind of experiment: Anti-inflammatory activity in Carrageenan-induced paw edema in Wistar albino rat assessed as reduction in paw edema measured after 3 hr relative to control. The format is functional. Further details: scale not given: the % may be the effect or the level left.
Experiment [16] deals with Rattus norvegicus. Description: Anti-inflammatory activity against Carrageenan-induced paw edema in Wistar albino rat ulcerogenic activity assessed as reduction in severity index. The format is functional.
Experiment [17] relates to Mus musculus. As to the kind of experiment: Anti-inflammatory activity against Carrageenan-induced paw edema in mouse model assessed as inhibition of edema at 100 mg/kg measured after 4 hrs relative to control. The format is functional. On the set-up: scale not given: the % may be the effect or the level left.
The subject of experiment [18] is Rattus norvegicus. Description: Ulcerogenic activity in Swiss albino Wistar rat assessed as ulcer lesion score at 100 mg/kg, po. The format is functional.
Experiment [19] concerns Mus musculus. Description: Anti-inflammatory activity against dimethylbenzene-induced auricular edema Kunming mouse model assessed as inhibition of ear edema at 50 mg/kg, po administered once daily relative to control. The format is functional. On the set-up: scale not given: the % may be the effect or the level left.
In experiment [20] the test system is Mus musculus. Description: Anti-inflammatory activity against dimethylbenzene-induced auricular edema Kunming mouse model assessed as inhibition of ear edema at 100 mg/kg, po administered once daily relative to control. The format is functional. On the set-up: scale not given: the % may be the effect or the level left.
For experiment [21], the target named is Prostaglandin G/H synthase 1 (Homo sapiens, UniProt P23219). Description: Inhibition of COX-1 (unknown origin) at 40 uM relative to control.
Prostaglandin G/H synthase 1 (Homo sapiens, UniProt P23219), sequence (P23219 whole entry): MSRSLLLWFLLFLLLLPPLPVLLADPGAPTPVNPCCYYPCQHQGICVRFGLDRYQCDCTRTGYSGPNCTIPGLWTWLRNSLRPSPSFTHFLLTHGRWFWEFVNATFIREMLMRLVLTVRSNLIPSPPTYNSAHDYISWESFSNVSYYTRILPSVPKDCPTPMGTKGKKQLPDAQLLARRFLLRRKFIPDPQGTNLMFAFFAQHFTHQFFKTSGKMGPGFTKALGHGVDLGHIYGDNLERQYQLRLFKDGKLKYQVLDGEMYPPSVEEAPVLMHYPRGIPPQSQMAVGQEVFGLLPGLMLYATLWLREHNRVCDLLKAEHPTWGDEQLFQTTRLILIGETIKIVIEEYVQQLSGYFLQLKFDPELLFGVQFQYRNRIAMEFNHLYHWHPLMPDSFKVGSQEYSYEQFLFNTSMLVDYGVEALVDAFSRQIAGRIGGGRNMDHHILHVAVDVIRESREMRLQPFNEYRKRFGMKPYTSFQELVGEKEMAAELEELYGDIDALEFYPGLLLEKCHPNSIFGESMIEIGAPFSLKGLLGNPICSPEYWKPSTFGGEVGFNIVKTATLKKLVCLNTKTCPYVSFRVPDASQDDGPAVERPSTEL
The test system of experiment [22] is Mus musculus. As to the kind of experiment: Anti-inflammatory activity in Carrageenan-induced paw edema in PO dosed mouse at 100 mg/kg assessed as inhibition of edema measured after 3 hr relative to control. The format is functional. On the set-up: scale not given: the % may be the effect or the level left.
Experiment [23] has as its system Rattus norvegicus. As to the kind of experiment: Anti-inflammatory activity against formalin-induced foot paw edema in PO dosed rat at 10 mg/kg assessed as inhibition of edema measured after 4 hr relative to control. The format is functional.
The subject of experiment [24] is Rattus norvegicus. Description: Anti-inflammatory activity against formalin-induced foot paw edema in PO dosed rat at 10 mg/kg assessed as inhibition of edema measured after 5 hr relative to control. The format is functional. Further details: scale not given: the % may be the effect or the level left.
In experiment [25] the test system is Rattus norvegicus. Description: Anti-inflammatory activity in Wistar rat assessed as reduced hind paw edema at 25 mg/kg relative to control. The format is functional. Further details: scale not given: the % may be the effect or the level left.
Experiment [26] deals with Rattus norvegicus. Description: Anti-ulcerative activity in Carrageenan-induced Sprague-Dawley rat ulcer model assessed as inhibition of ulcer index at 10 mg/kg,po. The format is functional.
For experiment [27], the system named is Mus musculus. Description: Anti-inflammatory activity in Carrageenan-induced paw edema in […] mouse model assessed as inhibition of edema at 200 mg/kg, po relative to control. Further details: scale not given: the % may be the effect or the level left. The format is functional.
The subject of experiment [28] is Mus musculus. Description: Anti-inflammatory activity in Carrageenan-induced paw edema mouse model assessed as inhibition of granuloma measured after 24 hrs relative to control. The format is functional.
In experiment [29] the test system is Rattus norvegicus. As to the kind of experiment: Anti-inflammatory activity against formalin-induced foot paw edema in Wistar rat at 5 mg/kg, po assessed as inhibition of edema measured after 4 hr relative to control. The format is functional.
Experiment [30] has as its system Rattus norvegicus. Description: Anti-inflammatory activity in Carageenan-induced paw edema Wistar rat model assessed as reduction in paw edema volume relative to control. The format is functional. On the set-up: scale not given: the % may be the effect or the level left.

For `CS(=O)(=O)c1ccc(-n2cc(/C=C3\NC(=S)N(c4ccccc4)C3=O)c(-c3ccccc3)n2)cc1`, the Selectivity Index in experiment [1] worked out at 9.15. Further, the Activity in the experiment with Rattus norvegicus [2] is given as 56%. For the same compound, the UI in the experiment with Rattus norvegicus [3] stood at 3.87.
For the compound `CC(=O)N(CN1C(=O)/C(=C\c2nnc(-c3ccc(-c4ccncc4)cc3)s2)c2ccccc21)C1C(c2ccc(O)cc2)=NNC1S` (stereo not given), the entries for the “inhibition (INH)” value in the experiment with Rattus norvegicus [4], in the experiment with Rattus norvegicus [5] and in the experiment on Rattus norvegicus [7] were 20%, 10.53% and 57.14%, respectively. The compound further registered a half-inhibitory concentration (IC50) in experiment [6] of 71.1 µM.
Regarding `COc1cc(-c2cc3ccccc3nc2C(=O)c2ccc(F)cc2)cc(OC)c1OC`, the values for the IC50 with RAW264.7 [8] and in the experiment with RAW264.7 [9] were 15.4 µM and 7.41 µM, respectively.
The compound `CC1=C(c2ccc(C(=O)NNC(=S)Nc3ccccc3)cn2)SC2Nc3ccccc3N12` (stereo not given) returned a concentration for half-maximal inhibition (IC50) in experiment [10] of 0.044 µM. Besides, the Activity in the experiment with Rattus norvegicus [11] is given as 79.5%.
As to `CCc1c(-c2ccccc2)n(C(=O)c2ccc(F)cc2)c2ccc(S(C)(=O)=O)cc12`, the Selectivity Index in experiment [1] came to 65.7. For the same compound, in the experiment on Rattus norvegicus [3], the UI was 7.3. Moreover, the “inhibition (INH)” value in the experiment on Rattus norvegicus [12] amounted to 90.5%.
On to `Clc1ccccc1-c1nnc(Cn2c(CN3CCOCC3)nc3ccccc32)o1`, for which the Activity with Rattus norvegicus [13] was determined as 38.54%; in the experiment on Rattus norvegicus [14], 67.12%; in the experiment with Rattus norvegicus [15], 74.17%; in the experiment with Rattus norvegicus [16], 0.28 mm.
In the case of `O=C(NCn1c(CCl)nc2ccccc21)c1ccc(Cl)cc1`, the Activity in the experiment with Mus musculus [17] worked out at 66.66%; with Rattus norvegicus [18] it was 12.25 mm.
As for `c1ccc([Se]CC2CC(c3ccccc3)=NO2)cc1` (stereo not given), the Activity worked out at 51% in the experiment with Mus musculus [19] and 74% in the experiment on Mus musculus [20].
Compound `COc1ccc(NCc2nc3ccccc3n2C(=O)c2ccccc2)cc1` showed a half-inhibitory concentration (IC50) in experiment [21] of 2.5 µM. Also, the Activity in the experiment with Mus musculus [22] turned out to be 40.3%.
Consider `Cc1ccc(-c2cc(C(F)(F)F)nn2-c2ccc(S(N)(=O)=O)cc2)cc1` [CELECOXIB], for which the inhibition in vivo at 10 mg/kg in the experiment on Rattus norvegicus [23] was 46.4%. The Activity is listed as 69% in the experiment on Rattus norvegicus [24]; 57.14% in the experiment on Rattus norvegicus [25]; 17.5% with Mus musculus [27]; 87.59% with Rattus norvegicus [30]; 79% in the experiment on Mus musculus [19]; 36% with Mus musculus [20]. Moreover, the UI worked out at 2.99 in the experiment on Rattus norvegicus [3] and 2.93 with Rattus norvegicus [26]. Also, in the experiment on Mus musculus [28], the “inhibition (INH)” value stood at 8.6%. Besides, the inhibition in vivo at 5 mg/kg in the experiment with Rattus norvegicus [29] is 46.4%.

One may read the IC50 as the concentration that gives 50% inhibition. By inhibition in vivo is commonly meant the relative decrease from the control value, in per cent.
